The target in this test is T1, GRK2 (Homo sapiens, UniProt P25098).
T1 sequence (P25098 1-689): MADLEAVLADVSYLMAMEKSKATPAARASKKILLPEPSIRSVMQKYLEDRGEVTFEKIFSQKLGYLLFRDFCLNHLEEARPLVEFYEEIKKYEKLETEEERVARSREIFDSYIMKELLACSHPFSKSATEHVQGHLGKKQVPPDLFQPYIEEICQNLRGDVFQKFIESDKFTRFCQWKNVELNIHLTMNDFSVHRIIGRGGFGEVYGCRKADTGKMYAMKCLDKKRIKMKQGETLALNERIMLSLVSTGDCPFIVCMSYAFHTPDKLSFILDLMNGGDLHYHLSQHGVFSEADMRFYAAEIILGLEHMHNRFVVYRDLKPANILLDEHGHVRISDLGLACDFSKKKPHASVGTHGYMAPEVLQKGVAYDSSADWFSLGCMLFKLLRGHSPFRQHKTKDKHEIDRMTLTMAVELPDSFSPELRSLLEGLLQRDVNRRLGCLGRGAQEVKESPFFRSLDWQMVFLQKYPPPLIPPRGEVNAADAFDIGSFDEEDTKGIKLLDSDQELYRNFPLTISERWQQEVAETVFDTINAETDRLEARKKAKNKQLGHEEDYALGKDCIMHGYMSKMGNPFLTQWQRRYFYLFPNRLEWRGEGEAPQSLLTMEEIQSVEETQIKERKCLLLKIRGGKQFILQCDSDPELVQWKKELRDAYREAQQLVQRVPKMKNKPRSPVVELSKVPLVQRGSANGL
Description: hGRK2 LANCE Ultra In Vitro Assay. Type of test: biochemical. The note with it: Biological Example 1 GRK2 Lancer IC50 (μM), 10 nM GRK2; 30 or 600 μM ATP (not stated which); multiple measurements listed individually. How it is done: hGRK2 LANCE Ultra In Vitro Assay
G-protein coupled receptor kinases (GR Kinases) desensitize activated G-protein coupled receptors (GPCRs), by phosphorylation of cytoplasmic loops or carboxyl-terminal tails of GPCRs. GRK2 is one of the 6 different GR kinases and is implicated in heart failure and diabetes.
This assay is sensitive and requires as low as 10 nM enzyme, in a total volume of 10 μL. In addition, the ATP concentration can be varied over a broad range, without interfering with the assay or changing the assay condition. […] Testing inhibitors routinely at both high and low ATP concentrations also enables identification of potential non-ATP competitive inhibitors.
Paroxetine was used as the reference compound in this assay.
Test compounds were dissolved in DMSO at 1 mM and were 3-fold serial diluted. The compound DMSO solutions were then added (100 nL) into a plate well using an acoustic dispenser. To each well was then added 20 nM GRK2 (5 μL) in assay buffer (20 mM HEPES, pH 7.5, 10 mM MgCl2, 0.001% Tween-20®). The plate was sealed and centrifuged at 1000 rpm for 1 min. The plate and wells containing a mixture of GRK2 and test compound were incubated at ambient temperature for 30 min (prior to initializing the enzymatic reaction).
Enzyme reactions were initiated by the addition of 4.9 μL Substrates/Eu-Ab mix to each well. […] Final concentrations of reagents in the assays were as follows: 20 mM HEPES, pH 7.5; 10 mM MgCl2; 0.001% Tween-20® (w/v); 30 or 600 μM ATP; 200 nM ULight-peptide; 4 nM Eu-Ab; 10 nM GRK2; and 1% DMSO.
The plates were sealed and centrifuged at 1000 rpm for 1 min. For reactions at low ATP concentration (30 μM), reaction mixtures were incubated at ambient temperature for 120 min. For reactions at high ATP concentration (600 μM), reaction mixtures were incubated at ambient temperature for 60 min.
The enzyme reactions were quenched by addition of 10 μL of 12 mM EDTA in 1× LANCE detection solution to each well. The plates were then incubated at ambient temperature for 30 min. Time-resolved fluorescence signal of reactions were read on an EnVision or PHERAstar plate reader with the following parameters: Excitation wavelength=337 nm; emission wavelength (donor)=620 nm; emission wavelength (acceptor)=665 nm.
The raw HTRF data were converted to % active as follows:
% active=(sample−NC)/(PC−NC)*100
where NC is the mean of negative control (reactions without GRK2), and PC is the mean of positive control (reactions with GRK2 but without inhibitor). IC50 values were determined from a 4-parameter fit, using the following equation:
Y=Bottom+(Top−Bottom)/(1+10^((Log IC50−X)*Hill slope))
where X=log10 of the compound concentration.

Each structure is given as a SMILES string.

What is called IC50 is the concentration needed to halve the response being measured. Higher therefore signals weaker potency in that assay.

With `CC(C)NC(=O)c1cccc([C@@H](C)N2Cc3ccc(-c4cn[nH]c4)cc3C2=O)c1` [Compound 31], it took 5.38 µM to reach half-maximal inhibition (IC50).

On to `CCOc1cccc(C(CO)N2Cc3ccc(-c4cn[nH]c4)cc3C2=O)c1` (centres unmarked) [Compound 53, 2-(2-Hydroxy-1-(3-ethoxyphenyl)ethyl)-6-(1H-pyrazol-4-yl)isoindolin-1-one], for which the IC50 is 0.008 µM.

`COc1cccc(CN2C(=O)c3cc(-c4cn[nH]c4)ccc3C23CCC(OC)C3)c1` (centres unmarked) [Compound 170] gave a half-inhibitory concentration (IC50) of 0.006 µM.

`COc1cncc(-c2cc(-c3cn[nH]c3)cc3c2CN([C@H](C)c2cccc(OC)c2)C3=O)c1` [Compound 126, (R)-2-(1-(3-methoxyphenyl)ethyl)-4-(5-methoxypyridin-3-yl)-6-(1H-pyrazol-4-yl)isoindolin-1-one]: the IC50 was 0.024 µM.

`COc1cccc(C(CO)N2Cc3ccc(-c4cn[nH]c4)cc3C2=O)c1` (single isomer, unassigned) [Compound 113, 2-[(1S*)-2-hydroxy-1-(3-methoxyphenyl)ethyl]-6-(1H-pyrazol-4-yl)isoindolin-1-one] yielded an IC50 of 0.003 µM.

Molecule `C[C@H](c1cccc(C(=O)Nc2ccc(F)c(F)c2)c1)N1Cc2ccc(-c3cn[nH]c3)cc2C1=O` [Compound 32] yielded an IC50 of 0.261 µM.

Turning to `CCOc1cccc([C@H](C(=O)OC)N2Cc3ccc(-c4ccncc4)cc3C2=O)c1` [Compound 76], the half-inhibitory concentration (IC50) is over 20 µM.

`COc1cccc(C(CO)N2Cc3c(cc(-c4cn[nH]c4)cc3-c3cncnc3)C2=O)c1` (centres unmarked) [Compound 158, 2-(2-hydroxy-1-(3-methoxyphenyl)ethyl)-6-(1H-pyrazol-4-yl)-4-(pyrimidin-5-yl)isoindolin-1-one] registered an IC50 of 0.027 µM.

In turn, `COc1cccc([C@@H](C(=O)O)N2Cc3ccc(-c4cn[nH]c4)cc3C2=O)c1` [Compound 169] gave an IC50 of 0.542 µM.

With `COc1cccc([C@@H](C)N2Cc3c(cc(-c4cn[nH]c4)cc3-c3cccnc3)C2=O)c1` [Compound 124, (R)-2-(1-(3-methoxyphenyl)ethyl)-6-(1H-pyrazol-4-yl)-4-(pyridin-3-yl)isoindolin-1-one], the midpoint of inhibition, the IC50, lay at 0.005 µM.

`COc1cccc(C(CN(C)C)N2Cc3ccc(-c4cn[nH]c4)cc3C2=O)c1` (centres unmarked) [Compound 80, 2-(2-(dimethylamino)-1-(3-methoxyphenyl)ethyl)-6-(1H-pyrazol-4-yl)isoindolin-1-one] returned an IC50 of 0.044 µM.

Turning to `COc1cccc(C(CO)N2C(=O)c3cc(-c4cn[nH]c4)ccc3C23CCCC3)c1` (centres unmarked) [Compound 79, 2′-(2-hydroxy-1-(3-methoxyphenyl)ethyl)-5′-(1H-pyrazol-4-yl)spiro[cyclopentane-1,1′-isoindolin]-3′-one], the IC50 was determined as 0.03 µM.

With `COc1cccc(C(CC(=O)O)N2Cc3ccc(-c4cn[nH]c4)cc3C2=O)c1` (centres unmarked) [Compound 100, 3-(3-methoxyphenyl)-3-(1-oxo-6-(1H-pyrazol-4-yl)isoindolin-2-yl)propanoic acid], half-maximal inhibition (IC50) was put at 6.24 µM.

Consider `COc1cccc(CN2C(=O)c3cc(-c4cn[nH]c4)ccc3C23CCC(C(=O)O)C3)c1` (centres unmarked) [Compound 107, 2′-(3-methoxybenzyl)-3′-oxo-5′-(1H-pyrazol-4-yl)spiro[cyclopentane-1,1′-isoindoline]-3-carboxylic acid], for which the midpoint of inhibition, the IC50, lay at 0.005 µM. This IC50 is about 1200-fold lower than that of the molecule before.

In turn, `CNC1CCC2(C1)c1ccc(-c3cn[nH]c3)cc1C(=O)N2Cc1cccc(OC)c1` (centres unmarked) [Compound 118, 2′-(3-methoxybenzyl)-3-(methylamino)-5′-(1H-pyrazol-4-yl)spiro[cyclopentane-1,1′-isoindolin]-3′-one] yielded a half-maximal inhibitory concentration (IC50) of under 0.005 µM.

In turn, `CC(C)NC(=O)c1cccc(CN2Cc3cc(F)c(-c4cn[nH]c4)cc3C2=O)c1` [Compound 166] returned a 50% inhibitory concentration (IC50) of 0.005 µM. That is a single-digit nanomolar value.

As to `COc1cccc(C(C(=O)N(C)C)N2Cc3ccc(-c4cn[nH]c4)cc3C2=O)c1` (centres unmarked) [Compound 168], the IC50 stood at 0.146 µM.

Consider `O=C1c2cc(-c3cn[nH]c3)ccc2CN1Cc1cccc(OC2CCOC2)c1` (centres unmarked) [Compound 90], for which the half-maximal inhibitory concentration (IC50) stood at 0.137 µM.

As for `COC(=O)NC1CCCC12c1ccc(-c3cn[nH]c3)cc1C(=O)N2Cc1cccc(OC)c1` (centres unmarked) [Compound 115, Methyl (2′-(3-methoxybenzyl)-3′-oxo-5′-(1H-pyrazol-4-yl)spiro[cyclopentane-1,1′-isoindolin]-2-yl)carbamate], the IC50 amounted to 0.177 µM.

As to `Cc1ccc(CN2Cc3ccc(-c4cn[nH]c4)cc3C2=O)s1` [Compound 27], 0.324 µM corresponded to half-maximal inhibition (IC50).

`CC(C)Oc1cccc(CN2Cc3ccc(-c4cn[nH]c4)cc3C2=O)c1` [Compound 69, 2-(3-Isopropoxybenzyl)-6-(1H-pyrazol-4-yl)isoindolin-1-one] registered an IC50 of 0.006 µM.

In the case of `COc1cccc(CN2C(=O)c3cc(-c4ccnc(N)n4)ccc3C2CC#N)c1` (centres unmarked) [Compound 33], the IC50 was 0.098 µM. This IC50 lies about 16-fold higher than the previous one.

The molecule `COc1cccc([C@@H](C)N2C(=O)c3cc(-c4cn[nH]c4)ccc3[C@@H]2CC(=O)O)c1` (single isomer, unassigned) [Compound 97] returned an IC50 of 0.012 µM.

Molecule `COc1cccc(C(CO)N2Cc3ccc(-c4cn[nH]c4)cc3C2=O)c1` (single isomer, unassigned) [Compound 172] displayed an IC50 of 0.148 µM.

The molecule `CNC(=O)c1nccc(-c2ccc3c(c2)C(=O)N(Cc2ccc(OC)cc2)C3)n1` [Compound 47, 4-(2-(4-methoxybenzyl)-3-oxoisoindolin-5-yl)-N-methylpyrimidine-2-carboxamide] came in with an IC50 of about 10 µM.

In turn, `COc1cccc([C@@H](C)N2C(=O)c3cc(-c4cn[nH]c4)ccc3[C@H]2CC(=O)O)c1` (single isomer, unassigned) [Compound 98] had an IC50 of 0.106 µM.

The molecule `COc1cccc(CN2C(=O)c3cc(-c4cn[nH]c4)ccc3C23CCOC3)c1` (centres unmarked) [Compound 75, 2′-(3-methoxybenzyl)-5′-(1H-pyrazol-4-yl)-4,5-dihydro-2H-spiro[furan-3,1′-isoindolin]-3′-one] yielded an IC50 of 0.007 µM.

Turning to `COc1cccc([C@@H](C)N2Cc3c(cc(-c4cn[nH]c4)cc3-c3ccc(C(C)(C)O)nc3)C2=O)c1` [Compound 141, (R)-4-(6-(2-hydroxypropan-2-yl)pyridin-3-yl)-2-(1-(3-methoxyphenyl)ethyl)-6-(1H-pyrazol-4-yl)isoindolin-1-one], the IC50 turned out to be 0.02 µM.

Molecule `COc1cccc(CN2C(=O)c3cc(-c4cn[nH]c4)ccc3C23CCCC3C(N)=O)c1` (centres unmarked) [Compound 111, 2′-(3-methoxybenzyl)-3′-oxo-5′-(1H-pyrazol-4-yl)spiro[cyclopentane-1,1′-isoindoline]-2-carboxamide] returned an IC50 of 0.007 µM. Compared with the last molecule, the IC50 is about 2.9-fold lower.

For the molecule `COc1cccc(-c2cc(-c3cn[nH]c3)cc3c2CN([C@H](C)c2cccc(OC)c2)C3=O)c1` [Compound 140, (R)-4-(3-methoxyphenyl)-2-(1-(3-methoxyphenyl)ethyl)-6-(1H-pyrazol-4-yl)isoindolin-1-one], it took 0.265 µM to reach half-maximal inhibition (IC50).

As to `COc1cccc(C(CO)N2C(=O)c3cc(-c4cn[nH]c4)ccc3C23CC=CC3)c1` (centres unmarked) [Compound 78, 2′-(2-hydroxy-1-(3-methoxyphenyl)ethyl)-5′-(1H-pyrazol-4-yl)spiro[cyclopentane-1,1′-isoindolin]-3-en-3′-one], the IC50 worked out at 0.06 µM.

Take `COC(=O)[C@H](c1cccc(OC)c1)N1Cc2ccc(-c3cn[nH]c3)cc2C1=O` [Compound 72]: the IC50 was found to be 0.13 µM.
